One test has as its system RBL-2H3 cells. As to the kind of experiment: IgE-induced Beta-hexosaminidase secretion in RBL-2H3 cells. The class given is cell-based. Conditions: Rattus norvegicus.
A further test concerns the target Syk kinase (Homo sapiens, UniProt P43405). As to the kind of experiment: Syk kinase enzymatic assay (Kit-Tyr 2 Peptide). Type of test: biochemical.
[1] abbreviates: RBL-2H3, RBL-2H3 cells sensitized with SPE-7, stimulated with DNP-BSA, upper bound of each range is 'less than', read-out: IC50, IgE-induced Beta-hexosaminidase secretion.
The mark [2] stands for this setting: 8 concentrations, 1 μM down to 0.0003 μM, upper bound of each range is 'less than', read-out: IC50: Enzymatic Activity (Syk kinase).

Like-named read-outs stand apart in the source and are kept apart here.

On to `Cc1ccc(-c2cc3nccnc3c(NC[C@H]3CCCNC3)n2)cc1Cl` [Compound 80], for which the IC50 in the test on RBL-2H3 cells (setting [1]) fell in the range of 100 to 1000 nM; at Syk kinase (setting [2]) it was 1 to 100 nM.
Turning to `COc1ccc(-c2cc3nccnc3c(NCCC(N)=O)n2)cc1F` [Compound 176], the IC50 in the test with RBL-2H3 cells (setting [1]) and on Syk kinase (setting [2]) was 100 to 1000 nM throughout.
Consider `CCn1cc(-c2cc3nccnc3c(NC[C@H]3CNCCC3(F)F)n2)cn1` [Compound 393, (R)—N-((4,4-difluoropiperidin-3-yl)methyl)-7-(1-ethyl-1H-pyrazol-4-yl)pyrido[4,3-b]pyrazin-5-amine], for which the IC50 in the test on RBL-2H3 cells (setting [1]) fell in the range of 1 to 100 nM; on Syk kinase (setting [2]) it was 100 to 1000 nM.
In the same order, the values of `O=C(C1CCCC1)N1CCN(c2ccc(-c3cc4nccnc4c(NC[C@@H]4CNCCO4)n3)cc2)CC1` [Compound 414] are 1 to 100 nM and 1 to 100 nM.
Take `COc1cccc(-c2cc3nccnc3c(NCC3CCCNC3)n2)c1` (stereo not drawn) [Compound 17]: the half-maximal inhibitory concentration (IC50) in the test with RBL-2H3 cells (setting [1]) and on Syk kinase (setting [2]) was 100 to 1000 nM throughout.
For the compound `Cc1ccc(-c2cc3nccnc3c(NC[C@@H]3CCCNC3)n2)cc1Cl` [Compound 76], the IC50 in the test with RBL-2H3 cells (setting [1]) and at Syk kinase (setting [2]) was 100 to 1000 nM each time.
With `COc1ccc(-c2cc3nccnc3c(NC[C@@H]3CNCCO3)n2)cc1F` [Compound 136], the IC50 in the test with RBL-2H3 cells (setting [1]) and at Syk kinase (setting [2]) was 1 to 100 nM throughout.
Regarding `FC1(F)CCNCC1CNc1nc(-c2ccc(N3CCNCC3)cc2)cc2nccnc12` (stereo not drawn) [Compound 307], the IC50 with RBL-2H3 cells (setting [1]) and on Syk kinase (setting [2]) was 1 to 100 nM throughout.
Turning to `c1cnc2c(NCC3CCCNC3)nc(-c3cn[nH]c3)cc2n1` (stereo not drawn) [Compound 25], the 50% inhibitory concentration (IC50) in the test with RBL-2H3 cells (setting [1]) and on Syk kinase (setting [2]) was 100 to 1000 nM throughout.
Turning to `c1cnc2c(N3CCC4(CCCNC4)C3)nc(-c3ccc(N4CCCC4)cc3)cc2n1` (stereo not drawn) [Compound 112], the 50% inhibitory concentration (IC50) with RBL-2H3 cells (setting [1]) fell in the range of 100 to 1000 nM; at Syk kinase (setting [2]), 1 to 100 nM.
In the same order, the values of `COc1ccc(-c2cc3nccnc3c(NCC3(F)CCCNC3)n2)cc1F` (stereo not drawn) [Compound 255] are 1 to 100 nM and 100 to 1000 nM.
In the same order, the values of `F[C@H]1CCN(c2ccc(-c3cc4nccnc4c(NCC4CNCCO4)n3)cc2)C1` (stereo partly drawn) [Compound 231] are 1 to 100 nM and 1 to 100 nM.
In the same order, the values of `O=C([C@@H]1CCOC1)N1CCN(c2ccc(-c3cc4nccnc4c(NC[C@@H]4CNCCO4)n3)cc2)CC1` [Compound 417] are 100 to 1000 nM and 1 to 100 nM.
For the compound `CS(=O)(=O)N1CCN(Cc2ccc(-c3cc4nccnc4c(NC[C@@H]4CNCCO4)n3)cc2)CC1` [Compound 503], the IC50 with RBL-2H3 cells (setting [1]) was in the range of 100 to 1000 nM; at Syk kinase (setting [2]), 1 to 100 nM.
In the same order, the values of `FC(F)(F)Oc1ccc(-c2cc3nccnc3c(NCC3CCCNC3)n2)cc1` (stereo not drawn) [Compound 54] are 100 to 1000 nM and 1 to 100 nM.
In the same order, the values of `Fc1cc(-c2cc3nccnc3c(NC[C@@H]3CNCCO3)n2)cc(F)c1N1CCOCC1` [Compound 135] are 100 to 1000 nM and 100 to 1000 nM.
In the same order, the values of `Fc1cc(-c2cc3nccnc3c(NCC3(F)CCCNC3)n2)ccc1N1CCOCC1` (single isomer, unassigned) [Compound 382] are 1 to 100 nM and 1 to 100 nM.
In the case of `NC(=O)C1CCN(c2nc(-c3ccc(N4CCOCC4)cc3)cc3nccnc23)C1` (stereo not drawn) [Compound 179], the half-inhibitory concentration (IC50) in the test on RBL-2H3 cells (setting [1]) was 100 to 1000 nM; on Syk kinase (setting [2]), 1 to 100 nM.
With `COc1ccc(-c2cc3nccnc3c(NCC3CNCCC3(F)F)n2)cc1Cl` (stereo not drawn) [Compound 298], the IC50 in the test with RBL-2H3 cells (setting [1]) and on Syk kinase (setting [2]) was 1 to 100 nM throughout.
Take `COCCOc1ccc(-c2cc3nccnc3c(NCC3CCCNC3)n2)cc1` (stereo not drawn) [Compound 78]: the IC50 in the test with RBL-2H3 cells (setting [1]) fell in the range of 100 to 1000 nM; at Syk kinase (setting [2]), 1 to 100 nM.
Turning to `O=C1CCC(CNc2nc(-c3ccc(N4CCOCC4)cc3)cc3nccnc23)CN1` (stereo not drawn) [Compound 168], the IC50 with RBL-2H3 cells (setting [1]) and on Syk kinase (setting [2]) was 100 to 1000 nM each time.
In the case of `CN1CCN(c2ccc(-c3cc4nccnc4c(NCCCN)n3)cc2)CC1` [Compound 186], the IC50 with RBL-2H3 cells (setting [1]) lay within 100 to 1000 nM; at Syk kinase (setting [2]) it was 1 to 100 nM.
In the same order, the values of `Fc1cc(-c2cc3nccnc3c(NC[C@H]3CCCNC3)n2)ccc1N1CCOCC1` [Compound 129] are 1 to 100 nM and 1 to 100 nM.
In the same order, the values of `N#CCC(=O)N1CCN(c2ccc(-c3cc4nccnc4c(NC[C@@H]4CNCCO4)n3)cc2)CC1` [Compound 409] are 100 to 1000 nM and 1 to 100 nM.
Consider `CCN1CCN(c2ccc(-c3cc4nccnc4c(NC[C@H]4CCCNC4)n3)cc2F)CC1` [Compound 238], for which the results for the IC50 in the test on RBL-2H3 cells (setting [1]) and at Syk kinase (setting [2]) were 100 to 1000 nM and 1 to 100 nM, respectively.
For the compound `CN(C)c1ccc(-c2cc3nccnc3c(NC[C@H]3CNCCO3)n2)cc1` [Compound 92], the half-maximal inhibitory concentration (IC50) with RBL-2H3 cells (setting [1]) and on Syk kinase (setting [2]) was 100 to 1000 nM each time.
`Cc1cc(-c2cc3nccnc3c(NCC3CNCCC3(F)F)n2)ccc1N1CCOCC1` (stereo not drawn) [Compound 295]: the IC50 with RBL-2H3 cells (setting [1]) and at Syk kinase (setting [2]) was 1 to 100 nM in each case.
Turning to `C[C@H]1CN(c2ccc(-c3cc4nccnc4c(NC[C@@H]4CNCCO4)n3)cc2F)CCO1` [Compound 386, 7-(3-fluoro-4-((S)-2-methylmorpholino)phenyl)-N—((S)-morpholin-2-ylmethyl)pyrido[4,3-b]pyrazin-5-amine], the IC50 lay within 100 to 1000 nM in the test on RBL-2H3 cells (setting [1]) and 1 to 100 nM at Syk kinase (setting [2]).
Take `CN(c1ccc(-c2cc3nccnc3c(NCC3CNCCO3)n2)cc1)S(C)(=O)=O` (stereo not drawn) [Compound 228]: the results for the IC50 in the test with RBL-2H3 cells (setting [1]) and on Syk kinase (setting [2]) were 100 to 1000 nM and 1 to 100 nM, respectively.
In the same order, the values of `CN1CCN(c2ccc(-c3cc4nccnc4c(NC[C@H]4CCCNC4)n3)cc2F)CC1` [Compound 237] are 1 to 100 nM and 1 to 100 nM.
In the same order, the values of `CCC(=O)N1CCC(c2ccc(-c3cc4nccnc4c(NC[C@@H]4CNCCO4)n3)cc2)CC1` [Compound 504] are 1 to 100 nM and 1 to 100 nM.
In the same order, the values of `O=C(C(F)F)N1CCN(c2ccc(-c3cc4nccnc4c(NC[C@@H]4CNCCO4)n3)cc2)CC1` [Compound 407] are 1 to 100 nM and 1 to 100 nM.
In the case of `O=C(CF)N1CCN(c2ccc(-c3cc4nccnc4c(NCC4CNCCO4)n3)cc2)CC1` (stereo not drawn) [Compound 424], the IC50 in the test on RBL-2H3 cells (RBL-2H3, read-out: IC50, IgE-induced Beta-hexosaminidase secretion) fell in the range of 1 to 100 nM; at Syk kinase, 1 to 100 nM.
Consider `CCS(=O)(=O)N1CCN(c2ccc(-c3cc4nccnc4c(NC[C@@H]4CNCCO4)n3)cc2F)CC1` [Compound 287], for which the IC50 in the test on RBL-2H3 cells (setting [1]) and on Syk kinase (setting [2]) was 1 to 100 nM each time.
For `O=C(C(F)F)N1CCO[C@H](CNc2nc(-c3ccc(N4CCOCC4)c(F)c3)cc3nccnc23)C1` [Compound 451], the concentration for half-maximal inhibition (IC50) in the test on RBL-2H3 cells (setting [1]) and on Syk kinase (setting [2]) was 1 to 100 nM each time.
With `OCCCOc1ccc(-c2cc3nccnc3c(NC[C@@H]3CNCCO3)n2)cc1` [Compound 476, (S)-3-(4-(5-(morpholin-2-ylmethylamino)pyrido[4,3-b]pyrazin-7-yl)phenoxy)propan-1-ol], the IC50 with RBL-2H3 cells (setting [1]) and at Syk kinase (setting [2]) was 1 to 100 nM in each case.
`Clc1ccc(-c2cc3nccnc3c(NC[C@H]3CCCNC3)n2)cc1` [Compound 85]: the IC50 in the test with RBL-2H3 cells (setting [1]) was 100 to 1000 nM; at Syk kinase (setting [2]), 1 to 100 nM.
In the same order, the values of `C[C@H](O)C(=O)N1CCN(c2ccc(-c3cc4nccnc4c(NC[C@@H]4CNCCO4)n3)cc2)CC1` [Compound 408] are 100 to 1000 nM and 1 to 100 nM.
In the same order, the values of `CN(c1ccc(-c2cc3nccnc3c(NC[C@@H]3CNCCO3)n2)cn1)C1CCOCC1` [Compound 264] are 1 to 100 nM and 1 to 100 nM.

For the origin of these results see patent US10052330B2, “Substituted pyrido[3,4-b]pyrazines as Syk inhibitors” (HUTCHISON MEDIPHARMA LIMITED, priority 2011, dated 2018).
